# Laboratory results taken from the supplement of paper PMC7017272.
# ± gives the standard deviation of the averaged measurements.
# Assays:
# UT-SCC-24A = test: relative IC50 (midpoint of the fitted curve; maximal inhibition may be below 50%); higher = less potent; settings: treatment time: 3 days
# Description: (§1)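 HNSCC cell lines (500 cells/well, 384-well) were cultured on plastic, on top of (2D) or embedded (3D) in Matrigel or human leiomyoma matrix Myogel (500 ug/mL; Myogel 3D mixed with rat collagen I). Cells were treated for 3 days with 5 ten-fold concentrations of each drug, and viability was read by CellTiter-Glo. Viability was normalised to DMSO (0% inhibition) and 100 uM benzethonium chloride (100% inhibition) controls and fitted with the FIMM DSRT pipeline to give IC50 (nM), maximal % inhibition and the drug sensitivity score (DSS). Suffixes _1/_2/_3 on drug names are replicates.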
# UT-SCC-106A = test: relative IC50 (midpoint of the fitted curve; maximal inhibition may be below 50%); higher = less potent; settings: treatment time: 3 days
# Procedure, shortened: (§2)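 HPV-negative HNSCC cell lines were seeded at 500 cells/well in 384-well plates on plastic, on Matrigel- or Myogel-coated wells (500 µg/mL), or embedded in Matrigel or Myogel plus rat collagen I. Compounds were given at five 10-fold concentrations for 3 days, and viability was read by CellTiter-Glo 2.0 luminescence. Signals were normalised to vehicle (0.1% DMSO) and cell-killing control wells. Percent-inhibition dose–response curves were fitted in the FIMM pipeline to derive IC50, maximal inhibition and drug sensitivity score.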
# UT-SCC-14 [1] = test: as above; settings: treatment time: 3 days
# Procedure, shortened: as §2
# UT-SCC-40 [2] = test: as above; settings: treatment time: 3 days
# Procedure, shortened: as §2
# UT-SCC-42B [3] = test: as above; settings: treatment time: 3 days
# Procedure, shortened: as §2
# UT-SCC-8 [4] = test: as above; settings: culture condition: embedded in Matrigel; treatment time: 3 days
# Procedure, shortened: as §2
# UT-SCC-44 = test: as above; settings: treatment time: 3 days
# Procedure, shortened: as §2
# UT-SCC-28 [5] = test: as above; settings: culture condition: plastic 2D (no matrix); treatment time: 3 days
# Procedure, shortened: as §2
# UT-SCC-73 = test: as above; settings: treatment time: 3 days
# Procedure, shortened: as §2
# UT-SCC-42A [6] = test: as above; settings: culture condition: on top of Matrigel; treatment time: 3 days
# Procedure, shortened: as §2
# UT-SCC-81 [7] = test: as above; settings: treatment time: 3 days
# Procedure, shortened: as §2
# UT-SCC-24B [8] = test: as above; settings: treatment time: 3 days
# Procedure, shortened: as §2
# UT-SCC-14 [9] = test: maximal % inhibition of viability relative to DMSO; higher = stronger effect; settings: treatment time: 3 days
# Description: as §1, with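 “DMSO” for “DMSO (0% inhibition)”, “and” for “and 100 uM”, “chloride” for “chloride (100% inhibition)”, “DSS.” for “the drug sensitivity score (DSS).”, “_1/_2/_3” for “_1/_2/_3 on drug names”, “replicates. Only inhibition-mode (IC50) fits are kept.” for “replicates.”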
# UT-SCC-40 [10] = test: as above; settings: treatment time: 3 days
# Description: as §1, with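 “DMSO” for “DMSO (0% inhibition)”, “and” for “and 100 uM”, “chloride” for “chloride (100% inhibition)”, “DSS.” for “the drug sensitivity score (DSS).”, “_1/_2/_3” for “_1/_2/_3 on drug names”, “replicates. Only inhibition-mode (IC50) fits are kept.” for “replicates.”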
# UT-SCC-42B [11] = test: as above; settings: treatment time: 3 days
# Description: as §1, with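 “DMSO” for “DMSO (0% inhibition)”, “and” for “and 100 uM”, “chloride” for “chloride (100% inhibition)”, “DSS.” for “the drug sensitivity score (DSS).”, “_1/_2/_3” for “_1/_2/_3 on drug names”, “replicates. Only inhibition-mode (IC50) fits are kept.” for “replicates.”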
# UT-SCC-8 [12] = test: as above; settings: treatment time: 3 days
# Description: as §1, with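 “DMSO” for “DMSO (0% inhibition)”, “and” for “and 100 uM”, “chloride” for “chloride (100% inhibition)”, “DSS.” for “the drug sensitivity score (DSS).”, “_1/_2/_3” for “_1/_2/_3 on drug names”, “replicates. Only inhibition-mode (IC50) fits are kept.” for “replicates.”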
# UT-SCC-28 [13] = test: as above; settings: treatment time: 3 days
# Description: as §1, with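 “DMSO” for “DMSO (0% inhibition)”, “and” for “and 100 uM”, “chloride” for “chloride (100% inhibition)”, “DSS.” for “the drug sensitivity score (DSS).”, “_1/_2/_3” for “_1/_2/_3 on drug names”, “replicates. Only inhibition-mode (IC50) fits are kept.” for “replicates.”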
# UT-SCC-42A [14] = test: as above; settings: treatment time: 3 days
# Description: as §1, with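 “DMSO” for “DMSO (0% inhibition)”, “and” for “and 100 uM”, “chloride” for “chloride (100% inhibition)”, “DSS.” for “the drug sensitivity score (DSS).”, “_1/_2/_3” for “_1/_2/_3 on drug names”, “replicates. Only inhibition-mode (IC50) fits are kept.” for “replicates.”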
# UT-SCC-81 [15] = test: as above; settings: treatment time: 3 days
# Description: as §1, with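 “DMSO” for “DMSO (0% inhibition)”, “and” for “and 100 uM”, “chloride” for “chloride (100% inhibition)”, “DSS.” for “the drug sensitivity score (DSS).”, “_1/_2/_3” for “_1/_2/_3 on drug names”, “replicates. Only inhibition-mode (IC50) fits are kept.” for “replicates.”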
# UT-SCC-24B [16] = test: as above; settings: treatment time: 3 days
# Description: as §1, with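 “DMSO” for “DMSO (0% inhibition)”, “and” for “and 100 uM”, “chloride” for “chloride (100% inhibition)”, “DSS.” for “the drug sensitivity score (DSS).”, “_1/_2/_3” for “_1/_2/_3 on drug names”, “replicates. Only inhibition-mode (IC50) fits are kept.” for “replicates.”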
# [17] = culture condition: embedded in Matrigel
# [18] = culture condition: on top of Matrigel
# [19] = culture condition: plastic 2D (no matrix)
# [20] = culture condition: on top of Myogel
# [21] = culture condition: embedded in Myogel + collagen I
smiles,measurement,setting,value
CC(=O)Nc1cccc(-n2c(=O)n(C3CC3)c(=O)c3c(Nc4ccc(I)cc4F)n(C)c(=O)c(C)c32)c1 [Trametinib],relative IC50,UT-SCC-24A; [17],1.4 nM
same,relative IC50,UT-SCC-24A; [18],1.34 nM
same,relative IC50,UT-SCC-24A; [19],1.07 nM
same,relative IC50,UT-SCC-106A; [17],0.942 nM
same,relative IC50,UT-SCC-106A; [18],1.25 nM
same,relative IC50,UT-SCC-106A; [19],1.5 nM
same,relative IC50,UT-SCC-14 [1]; [17],3.5 nM
same,relative IC50,UT-SCC-14 [1]; [18],7.96 nM
same,relative IC50,UT-SCC-14 [1]; [19],17.5 nM
same,relative IC50,UT-SCC-40 [2]; [18],3.55 nM
same,relative IC50,UT-SCC-40 [2]; [20],4.8 nM
same,relative IC50,UT-SCC-42B [3]; [17],1.71 nM
same,relative IC50,UT-SCC-42B [3]; [18],5.67 nM
same,relative IC50,UT-SCC-42B [3]; [20],12.5 nM
same,relative IC50,UT-SCC-8 [4],11.3 nM
same,relative IC50,UT-SCC-44; [17],1.55 nM
same,relative IC50,UT-SCC-44; [18],1.52 nM
same,relative IC50,UT-SCC-44; [19],1.46 nM
same,relative IC50,UT-SCC-28 [5],1.42 nM
same,relative IC50,UT-SCC-73; [17],2.42 nM
same,relative IC50,UT-SCC-73; [20],3.31 nM
same,relative IC50,UT-SCC-42A [6],3.65 nM
same,relative IC50,UT-SCC-81 [7]; [21],6.59 nM
same,relative IC50,UT-SCC-81 [7]; [19],7.02 nM
same,relative IC50,UT-SCC-24B [8]; [17],9.83 nM
same,relative IC50,UT-SCC-24B [8]; [21],9.92 nM
same,relative IC50,UT-SCC-24B [8]; [18],11.6 nM
same,relative IC50,UT-SCC-24B [8]; [20],22.7 nM
same,relative IC50,UT-SCC-24B [8]; [19],7.62 nM
same,maximal % inhibition of viability,UT-SCC-14 [9]; [17],43.2 ± 5.3%
same,maximal % inhibition of viability,UT-SCC-14 [9]; [21],31 ± 10%
same,maximal % inhibition of viability,UT-SCC-14 [9]; [18],37.1 ± 8.6%
same,maximal % inhibition of viability,UT-SCC-14 [9]; [20],22.9 ± 3%
same,maximal % inhibition of viability,UT-SCC-14 [9]; [19],24 ± 8.8%
same,maximal % inhibition of viability,UT-SCC-40 [10]; [17],78.07 ± 0.4%
same,maximal % inhibition of viability,UT-SCC-40 [10]; [21],61.7 ± 4.8%
same,maximal % inhibition of viability,UT-SCC-40 [10]; [18],71.7 ± 2.8%
same,maximal % inhibition of viability,UT-SCC-40 [10]; [20],51.9 ± 1.5%
same,maximal % inhibition of viability,UT-SCC-40 [10]; [19],52.2 ± 7.5%
same,maximal % inhibition of viability,UT-SCC-42B [11]; [17],67.8 ± 4.4%
same,maximal % inhibition of viability,UT-SCC-42B [11]; [18],52.2 ± 7.1%
same,maximal % inhibition of viability,UT-SCC-42B [11]; [20],20.8 ± 7.8%
same,maximal % inhibition of viability,UT-SCC-42B [11]; [19],28.8 ± 8%
same,maximal % inhibition of viability,UT-SCC-8 [12]; [17],61.3 ± 18%
same,maximal % inhibition of viability,UT-SCC-8 [12]; [21],24.5 ± 29%
same,maximal % inhibition of viability,UT-SCC-8 [12]; [18],47.3 ± 24%
same,maximal % inhibition of viability,UT-SCC-8 [12]; [20],41.1 ± 19%
same,maximal % inhibition of viability,UT-SCC-8 [12]; [19],43 ± 23%
same,maximal % inhibition of viability,UT-SCC-28 [13]; [17],36.7 ± 7.8%
same,maximal % inhibition of viability,UT-SCC-28 [13]; [21],29.7 ± 26%
same,maximal % inhibition of viability,UT-SCC-28 [13]; [18],35.1 ± 7.7%
same,maximal % inhibition of viability,UT-SCC-28 [13]; [19],21.1 ± 4.4%
same,maximal % inhibition of viability,UT-SCC-42A [14]; [17],45.4 ± 0.67%
same,maximal % inhibition of viability,UT-SCC-42A [14]; [21],22.1 ± 5.4%
same,maximal % inhibition of viability,UT-SCC-42A [14]; [18],50.3 ± 4.1%
same,maximal % inhibition of viability,UT-SCC-42A [14]; [20],29.4 ± 6.9%
same,maximal % inhibition of viability,UT-SCC-42A [14]; [19],34.7 ± 3.8%
same,maximal % inhibition of viability,UT-SCC-81 [15]; [17],84.9 ± 2.4%
same,maximal % inhibition of viability,UT-SCC-81 [15]; [21],24.5 ± 2.6%
same,maximal % inhibition of viability,UT-SCC-81 [15]; [18],78.6 ± 2.9%
same,maximal % inhibition of viability,UT-SCC-81 [15]; [20],27.8 ± 11%
same,maximal % inhibition of viability,UT-SCC-81 [15]; [19],44.1 ± 8.9%
same,maximal % inhibition of viability,UT-SCC-24B [16]; [17],67.1 ± 3.1%
same,maximal % inhibition of viability,UT-SCC-24B [16]; [21],66.5 ± 3.8%
same,maximal % inhibition of viability,UT-SCC-24B [16]; [18],67.53 ± 0.29%
same,maximal % inhibition of viability,UT-SCC-24B [16]; [20],59.1 ± 4.8%
same,maximal % inhibition of viability,UT-SCC-24B [16]; [19],78.8 ± 1.7%
